Measured values taken from paper PMC9329436, “Optimization of the 4-anilinoquin(az)oline scaffold as epidermal growth factor receptor (EGFR) inhibitors for chordoma utilizing a toxicology profiling assay platform” (Scientific Reports, 2022).
Like-named read-outs stand apart in the source and are kept apart here.

Columns and labels:
Assay type in all cases: biochemical
[1] = target: T1, 320 wild-type protein kinases (Homo sapiens, UniProt Q96KB5); conditions: PBK, singlicate
T1 sequence (Q96KB5 1-322): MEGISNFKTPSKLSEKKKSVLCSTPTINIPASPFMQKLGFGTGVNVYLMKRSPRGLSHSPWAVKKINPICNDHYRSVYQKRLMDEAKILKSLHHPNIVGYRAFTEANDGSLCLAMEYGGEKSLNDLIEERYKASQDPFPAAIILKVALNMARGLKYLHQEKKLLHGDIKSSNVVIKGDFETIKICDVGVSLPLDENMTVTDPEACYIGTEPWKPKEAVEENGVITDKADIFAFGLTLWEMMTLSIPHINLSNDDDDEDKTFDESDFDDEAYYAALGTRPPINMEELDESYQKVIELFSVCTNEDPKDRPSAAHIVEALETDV
Text: (§1) Table S4. Profiling of two compounds at two concentrations against 320 wild-type protein kinases; singlicate measurement; Residual activities (% of control).

[2] = target: T2, 320 wild-type protein kinases (Homo sapiens, UniProt O14920); conditions: IKK-beta, singlicate
T2 sequence (O14920 1-756): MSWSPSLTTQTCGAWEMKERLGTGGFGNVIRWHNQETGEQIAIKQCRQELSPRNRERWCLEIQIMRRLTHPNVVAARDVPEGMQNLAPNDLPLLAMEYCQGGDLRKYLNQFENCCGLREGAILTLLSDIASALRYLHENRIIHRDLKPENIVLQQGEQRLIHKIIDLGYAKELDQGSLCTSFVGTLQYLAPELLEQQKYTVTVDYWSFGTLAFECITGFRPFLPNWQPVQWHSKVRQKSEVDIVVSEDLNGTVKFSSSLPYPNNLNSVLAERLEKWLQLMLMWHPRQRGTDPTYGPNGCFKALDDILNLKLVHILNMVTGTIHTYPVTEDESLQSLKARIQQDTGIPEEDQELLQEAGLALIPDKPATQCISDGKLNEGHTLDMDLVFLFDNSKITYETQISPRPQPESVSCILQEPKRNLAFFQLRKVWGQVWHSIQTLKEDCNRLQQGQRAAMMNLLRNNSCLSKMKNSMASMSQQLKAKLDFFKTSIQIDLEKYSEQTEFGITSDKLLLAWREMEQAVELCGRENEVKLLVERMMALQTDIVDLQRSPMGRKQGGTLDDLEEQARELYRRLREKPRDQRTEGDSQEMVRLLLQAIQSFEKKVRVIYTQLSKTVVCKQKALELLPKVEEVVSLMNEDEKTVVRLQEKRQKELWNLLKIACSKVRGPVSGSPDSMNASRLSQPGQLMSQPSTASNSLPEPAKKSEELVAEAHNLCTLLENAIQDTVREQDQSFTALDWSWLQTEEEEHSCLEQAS
Text: as §1

[3] = target: 320 wild-type protein kinases (Homo sapiens, UniProt Q9Y2K2); conditions: kinase SIK3, singlicate
Text: as §1

[4] = target: T3, 320 wild-type protein kinases (Homo sapiens, UniProt O15111); conditions: IKK-alpha, singlicate
T3 sequence (O15111 1-745): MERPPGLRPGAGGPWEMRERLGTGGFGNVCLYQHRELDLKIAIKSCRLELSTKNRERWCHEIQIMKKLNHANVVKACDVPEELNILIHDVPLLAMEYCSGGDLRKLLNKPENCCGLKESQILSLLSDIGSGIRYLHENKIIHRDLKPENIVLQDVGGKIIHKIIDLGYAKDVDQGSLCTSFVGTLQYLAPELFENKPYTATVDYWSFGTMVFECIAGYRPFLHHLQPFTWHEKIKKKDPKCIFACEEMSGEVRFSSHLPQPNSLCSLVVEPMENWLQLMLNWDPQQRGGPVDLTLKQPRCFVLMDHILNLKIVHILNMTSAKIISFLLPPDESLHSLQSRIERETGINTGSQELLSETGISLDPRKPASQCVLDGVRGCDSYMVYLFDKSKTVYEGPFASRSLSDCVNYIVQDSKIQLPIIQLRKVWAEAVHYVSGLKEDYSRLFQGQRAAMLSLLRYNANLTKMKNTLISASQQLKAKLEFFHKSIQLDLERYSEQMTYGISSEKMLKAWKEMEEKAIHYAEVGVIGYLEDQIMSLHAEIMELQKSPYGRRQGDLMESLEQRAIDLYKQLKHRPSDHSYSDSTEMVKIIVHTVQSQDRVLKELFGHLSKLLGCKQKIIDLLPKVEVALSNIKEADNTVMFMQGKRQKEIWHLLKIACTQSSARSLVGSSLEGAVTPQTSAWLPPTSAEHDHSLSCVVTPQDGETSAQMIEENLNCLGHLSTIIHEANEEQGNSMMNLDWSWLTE
Text: as §1

[5] = target: 320 wild-type protein kinases (Homo sapiens, UniProt P06213); conditions: INS-R, singlicate
Text: as §1

[6] = target: 320 wild-type protein kinases (Homo sapiens, UniProt Q9UPE1); conditions: kinase STK23, singlicate
Text: as §1

[7] = target: 320 wild-type protein kinases (Homo sapiens, UniProt P07949); conditions: kinase RET, singlicate
Text: as §1

Sequence of 320 wild-type protein kinases (Homo sapiens, UniProt P06213) (P06213 28-1382): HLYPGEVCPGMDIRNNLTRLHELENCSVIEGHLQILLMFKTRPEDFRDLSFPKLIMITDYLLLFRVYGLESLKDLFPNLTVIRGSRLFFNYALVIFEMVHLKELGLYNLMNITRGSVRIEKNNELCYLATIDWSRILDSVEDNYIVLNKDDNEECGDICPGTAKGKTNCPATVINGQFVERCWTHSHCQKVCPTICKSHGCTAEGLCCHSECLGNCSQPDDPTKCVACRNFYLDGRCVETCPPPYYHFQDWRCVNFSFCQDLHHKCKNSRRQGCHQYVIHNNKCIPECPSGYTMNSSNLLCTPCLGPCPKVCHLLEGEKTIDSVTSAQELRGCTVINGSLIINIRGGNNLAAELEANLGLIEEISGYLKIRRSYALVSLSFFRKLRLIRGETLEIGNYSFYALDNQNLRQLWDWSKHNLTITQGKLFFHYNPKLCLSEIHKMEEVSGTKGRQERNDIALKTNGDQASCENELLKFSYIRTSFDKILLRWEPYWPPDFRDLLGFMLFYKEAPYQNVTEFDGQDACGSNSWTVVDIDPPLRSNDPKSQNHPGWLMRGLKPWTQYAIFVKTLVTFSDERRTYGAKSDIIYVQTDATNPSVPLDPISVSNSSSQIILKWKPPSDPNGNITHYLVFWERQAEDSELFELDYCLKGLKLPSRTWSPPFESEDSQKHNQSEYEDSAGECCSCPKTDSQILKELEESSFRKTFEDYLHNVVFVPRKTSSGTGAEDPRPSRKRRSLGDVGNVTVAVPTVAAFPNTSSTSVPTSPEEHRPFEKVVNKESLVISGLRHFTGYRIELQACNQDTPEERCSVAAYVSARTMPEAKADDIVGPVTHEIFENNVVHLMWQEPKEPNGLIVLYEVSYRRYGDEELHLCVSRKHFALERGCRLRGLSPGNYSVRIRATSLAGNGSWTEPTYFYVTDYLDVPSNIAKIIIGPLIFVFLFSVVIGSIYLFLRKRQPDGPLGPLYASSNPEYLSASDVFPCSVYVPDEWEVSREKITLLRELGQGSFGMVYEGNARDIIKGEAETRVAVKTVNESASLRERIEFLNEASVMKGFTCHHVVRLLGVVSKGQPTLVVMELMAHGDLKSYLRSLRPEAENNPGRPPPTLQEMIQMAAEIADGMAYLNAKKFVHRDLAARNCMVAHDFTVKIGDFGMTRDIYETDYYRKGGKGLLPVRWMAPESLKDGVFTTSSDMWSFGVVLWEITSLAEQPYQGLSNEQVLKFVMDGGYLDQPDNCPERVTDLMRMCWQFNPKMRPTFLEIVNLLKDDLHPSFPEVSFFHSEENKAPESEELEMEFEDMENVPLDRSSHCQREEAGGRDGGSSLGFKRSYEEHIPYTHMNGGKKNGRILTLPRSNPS
Sequence of 320 wild-type protein kinases (Homo sapiens, UniProt Q9Y2K2) (Q9Y2K2 whole entry): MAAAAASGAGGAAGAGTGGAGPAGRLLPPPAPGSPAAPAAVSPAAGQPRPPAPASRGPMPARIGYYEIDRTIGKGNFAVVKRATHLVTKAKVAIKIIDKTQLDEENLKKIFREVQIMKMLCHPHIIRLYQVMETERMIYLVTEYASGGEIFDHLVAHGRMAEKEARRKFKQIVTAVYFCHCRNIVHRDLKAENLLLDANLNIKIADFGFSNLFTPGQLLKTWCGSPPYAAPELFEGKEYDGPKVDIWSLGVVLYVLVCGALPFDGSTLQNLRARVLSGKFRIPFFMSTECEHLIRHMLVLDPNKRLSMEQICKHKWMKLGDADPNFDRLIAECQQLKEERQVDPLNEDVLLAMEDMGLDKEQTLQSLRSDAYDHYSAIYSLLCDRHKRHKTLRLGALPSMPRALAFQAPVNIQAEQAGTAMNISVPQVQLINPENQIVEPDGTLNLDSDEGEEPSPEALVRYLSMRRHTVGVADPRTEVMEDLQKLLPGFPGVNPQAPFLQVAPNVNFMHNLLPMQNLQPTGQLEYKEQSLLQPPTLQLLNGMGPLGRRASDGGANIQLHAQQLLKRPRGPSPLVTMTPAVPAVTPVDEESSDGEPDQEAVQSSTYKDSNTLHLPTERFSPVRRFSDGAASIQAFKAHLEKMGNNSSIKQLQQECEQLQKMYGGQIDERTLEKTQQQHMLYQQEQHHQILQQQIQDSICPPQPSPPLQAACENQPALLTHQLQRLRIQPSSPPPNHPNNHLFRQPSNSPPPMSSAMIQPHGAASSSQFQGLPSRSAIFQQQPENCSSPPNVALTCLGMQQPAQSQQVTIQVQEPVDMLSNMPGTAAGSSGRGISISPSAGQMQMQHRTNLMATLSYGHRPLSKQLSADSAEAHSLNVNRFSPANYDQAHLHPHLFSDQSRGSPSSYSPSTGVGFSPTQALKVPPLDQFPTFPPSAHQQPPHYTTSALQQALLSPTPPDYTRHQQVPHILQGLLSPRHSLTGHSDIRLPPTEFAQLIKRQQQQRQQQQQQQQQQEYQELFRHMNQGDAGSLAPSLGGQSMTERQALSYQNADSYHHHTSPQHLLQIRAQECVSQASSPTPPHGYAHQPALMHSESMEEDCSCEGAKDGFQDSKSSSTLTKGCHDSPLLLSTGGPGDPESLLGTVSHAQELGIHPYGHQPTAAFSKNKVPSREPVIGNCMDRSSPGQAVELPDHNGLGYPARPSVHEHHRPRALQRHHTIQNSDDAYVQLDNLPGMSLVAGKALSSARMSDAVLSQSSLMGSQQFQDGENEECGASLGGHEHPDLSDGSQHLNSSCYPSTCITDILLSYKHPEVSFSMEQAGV
Sequence of 320 wild-type protein kinases (Homo sapiens, UniProt Q9UPE1) (Q9UPE1 whole entry): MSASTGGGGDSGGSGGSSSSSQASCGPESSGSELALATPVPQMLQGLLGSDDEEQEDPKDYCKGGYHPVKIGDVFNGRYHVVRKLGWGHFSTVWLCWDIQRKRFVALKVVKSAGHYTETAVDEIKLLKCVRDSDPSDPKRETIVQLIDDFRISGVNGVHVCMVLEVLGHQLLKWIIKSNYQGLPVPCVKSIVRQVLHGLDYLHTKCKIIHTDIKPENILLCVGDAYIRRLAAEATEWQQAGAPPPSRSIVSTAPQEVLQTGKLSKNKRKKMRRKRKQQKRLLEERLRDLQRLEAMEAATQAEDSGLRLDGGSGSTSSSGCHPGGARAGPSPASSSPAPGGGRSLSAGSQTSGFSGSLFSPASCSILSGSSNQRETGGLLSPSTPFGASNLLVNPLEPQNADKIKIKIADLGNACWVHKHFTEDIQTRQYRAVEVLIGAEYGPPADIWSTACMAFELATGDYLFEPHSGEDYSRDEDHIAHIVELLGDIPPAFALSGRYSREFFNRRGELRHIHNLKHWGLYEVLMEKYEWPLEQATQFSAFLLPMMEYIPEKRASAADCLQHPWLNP
Sequence of 320 wild-type protein kinases (Homo sapiens, UniProt P07949) (P07949 29-1114): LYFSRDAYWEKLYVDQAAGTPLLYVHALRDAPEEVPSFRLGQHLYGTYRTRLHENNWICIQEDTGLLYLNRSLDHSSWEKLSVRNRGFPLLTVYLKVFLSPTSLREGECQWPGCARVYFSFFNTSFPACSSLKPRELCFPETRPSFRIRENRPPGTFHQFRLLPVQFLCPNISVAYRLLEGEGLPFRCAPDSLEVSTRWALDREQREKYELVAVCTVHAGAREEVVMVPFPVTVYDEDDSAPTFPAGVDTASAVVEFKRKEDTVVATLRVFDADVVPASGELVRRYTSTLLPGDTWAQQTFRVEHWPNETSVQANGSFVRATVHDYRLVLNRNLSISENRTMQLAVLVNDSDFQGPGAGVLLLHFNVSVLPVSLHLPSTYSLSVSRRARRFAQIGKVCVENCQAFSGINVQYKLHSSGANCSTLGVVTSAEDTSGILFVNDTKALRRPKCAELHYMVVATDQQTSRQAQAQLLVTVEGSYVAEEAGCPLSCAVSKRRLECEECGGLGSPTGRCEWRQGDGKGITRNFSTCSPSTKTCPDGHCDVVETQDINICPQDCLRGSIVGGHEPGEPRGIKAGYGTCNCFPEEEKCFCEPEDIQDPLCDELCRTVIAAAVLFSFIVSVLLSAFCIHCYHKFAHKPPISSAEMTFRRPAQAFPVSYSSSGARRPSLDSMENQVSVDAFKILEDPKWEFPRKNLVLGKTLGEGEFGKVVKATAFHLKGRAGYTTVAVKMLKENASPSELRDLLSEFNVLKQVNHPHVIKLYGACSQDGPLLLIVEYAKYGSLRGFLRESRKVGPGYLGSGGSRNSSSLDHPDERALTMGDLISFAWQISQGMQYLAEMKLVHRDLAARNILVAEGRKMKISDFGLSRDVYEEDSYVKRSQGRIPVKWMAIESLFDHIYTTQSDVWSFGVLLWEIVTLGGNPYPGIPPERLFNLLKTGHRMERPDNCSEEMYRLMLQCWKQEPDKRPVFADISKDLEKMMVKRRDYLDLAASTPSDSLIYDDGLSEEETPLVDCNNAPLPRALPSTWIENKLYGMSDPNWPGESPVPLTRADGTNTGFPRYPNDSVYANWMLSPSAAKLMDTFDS

SMILES	Residual activity ([1]; 1.0E-06 M)	Residual activity ([1]; 1.0E-07 M)	Residual activity ([2]; 1.0E-06 M)	Residual activity ([2]; 1.0E-07 M)	Residual activity, SIK3 ([3]; assay conc. 1.0E-06 M)	Residual activity, SIK3 ([3]; assay conc. 1.0E-07 M)	Residual activity ([4]; 1.0E-06 M)	Residual activity ([4]; 1.0E-07 M)	Residual activity ([5]; 1.0E-06 M)	Residual activity ([5]; 1.0E-07 M)	Residual activity, STK23 ([6]; assay conc. 1.0E-06 M)	Residual activity, STK23 ([6]; assay conc. 1.0E-07 M)	Residual activity, RET ([7]; assay conc. 1.0E-06 M)	Residual activity, RET ([7]; assay conc. 1.0E-07 M)
C#Cc1cc(Nc2ncnc3cc(I)ccc23)ccc1Cl [Compound 41]	110 % of control	98 % of control	124 % of control	199 % of control	72 % of control	77 % of control	100 % of control	109 % of control	96 % of control	105 % of control	94 % of control	93 % of control	85 % of control	102 % of control
C#Cc1cc(Nc2ncnc3cc(OC)c(OC)cc23)ccc1Cl [Compound 45]	80 % of control	91 % of control	107 % of control	121 % of control	58 % of control	83 % of control	95 % of control	106 % of control	82 % of control	97 % of control	87 % of control	97 % of control	51 % of control	101 % of control
